Experimental data reported in patent US20090196924A1 (priority 2008, published 2009).
≈ marks a conversion by molar mass, not a printed value.

Assays:
[1] = concomitant valproate (reduces hepatic clearance of lamotrigine), for a given dose; cited from earlier work
[2] = 25° C., cited from earlier work
[3] = Solubility of lamotrigine; format: physicochemical; details: all media; slightly pH-dependent, highest in 0.1N HCl

Q: With `Nc1nnc(-c2cccc(Cl)c2Cl)c(N)n1` [Lamotrigine, 3,5-diamino-6-(2,3-dichlorophenyl)-as-triazine] as the compound, how does the “increase of plasma concentrations of the drug” value [1] read?
A: The value was “approximately two-fold”.

Q: What about the “solubility in 0.1 M HCl” value ([2]; 0.1 M HCl) of the same compound?
A: The value was 4.1 mg/mL (≈ 16 mM).

Q: And the solubility in water ([2]; water)?
A: The solubility in water was 0.17 mg/mL (≈ 0.664 mM).

Q: And the solubility of lamotrigine [3]?
A: The solubility of lamotrigine was “moderately high in all media”.
